# Results taken from patent publication US10448639B2, “Fungicidal pyrazoles” (FMC CORPORATION, priority 2009, dated 2019).
# Where two headings read alike, the source gives them in different places.
# Tests used:
# Alternaria solani = experiment: Test C: tomato early blight, preventive spray on tomato seedlings, visual disease rating; conditions: for Test C rating (% disease control) / Test C disease control rating: tomato early blight, 100 = 100% disease control; for Test C disease control rating: 0 = no disease control relative to controls
# Septoria nodorum = experiment: Test F: Septoria glume blotch, preventive spray on wheat seedlings, visual disease rating; conditions: for Test F rating (% disease control) / Test F disease control rating: 100 = 100% disease control; for Test F disease control rating: 0 = no disease control relative to controls
# Rhizoctonia solani = experiment: Test E: turf brown patch, preventive spray on creeping bent grass (Agrostis sp.) seedlings, disease rating; format: in vivo; conditions: 100 = 100% disease control; for Test E disease control rating: 0 = no disease control relative to controls
# Text: A dash (-) indicates no test results.
# Botrytis cinerea = experiment: Test B: tomato Botrytis, preventive spray on tomato seedlings, visual disease rating; conditions: for Test B rating (% disease control) / Test B disease control rating: tomato Botrytis, 100 = 100% disease control; for Test B disease control rating: 0 = no disease control relative to controls
# [1] = test system: Puccinia recondita f. sp. tritici; experiment: Test I: wheat leaf rust, preventive spray on wheat seedlings, visual disease rating; conditions: for Test I rating (% disease control) / Test I disease control rating: wheat leaf rust, 100 = 100% disease control; for Test I disease control rating: sprayed the day before inoculation, 0 = no disease control relative to controls
# Phytophthora infestans = format: in vivo; conditions: tomato late blight, 100 = 100% disease control
# [2] = test system: Erysiphe graminis f sp. tritici; experiment: Test J: wheat powdery mildew, preventive spray on wheat seedlings, visual disease rating; conditions: for Test J rating (% disease control) / Test J disease control rating: wheat powdery mildew, 100 = 100% disease control; for Test J disease control rating: sprayed the day before inoculation, 0 = no disease control relative to controls
# Septoria tritici = experiment: Test G: wheat leaf blotch, preventive spray on wheat seedlings, visual disease rating; conditions: for Test G rating (% disease control) / Test G disease control rating: wheat leaf blotch, 100 = 100% disease control; for Test G disease control rating: sprayed the day before inoculation, 0 = no disease control relative to controls
# Plasmopara viticola = experiment: Test A: grape downy mildew, curative spray on inoculated grape seedlings, visual disease rating; format: in vivo; conditions: 100 = 100% disease control, 0 = no control relative to controls
# Text: Upon removal, visual disease ratings were made. […] A dash (-) indicates no test results.
# [3] = test system: Puccinia recondita f. sp. tritici; experiment: Test H: wheat leaf rust, curative spray on inoculated wheat seedlings, visual disease rating
# [4] = preventive spray, 0 = no control
# [5] = Septoria glume blotch on wheat, preventive spray, 0 = no control
# [6] = 0 = no control relative to controls
# [7] = Septoria glume blotch, 0 = no control relative to controls
# [8] = preventive, 0 = no control relative to controls
# [9] = wheat leaf rust, curative spray, 100 = 100% disease control, 0 = no control
# [10] = wheat leaf rust, curative, 100 = 100% disease control, 0 = no control relative to controls
compound,measurement,setting,value
Cc1nn(C)c(Nc2ccc(F)cc2F)c1-c1ccc(F)cc1Cl [compound 13],Test C rating (% disease control),Alternaria solani; [4],100%
same,Test F rating (% disease control),Septoria nodorum; [5],64%
same,Test E rating (% disease control),Rhizoctonia solani; [4],98%
same,Test B rating (% disease control),Botrytis cinerea; [4],99%
same,Test I rating (% disease control),[1]; [4],100%
same,Test D rating (% disease control),Phytophthora infestans; [4],0%
same,Test J rating (% disease control),[2]; [4],99%
same,Test G rating (% disease control),Septoria tritici; [4],100%
CCN(c1c(F)cc(F)cc1F)c1c(-c2ccc(F)cc2Cl)c(C)nn1C [compound 294],Test C rating (% disease control),Alternaria solani; [6],0%
same,Test F rating (% disease control),Septoria nodorum; [7],0%
same,Test E rating (% disease control),Rhizoctonia solani; [6],80%
same,Test B rating (% disease control),Botrytis cinerea; [6],98%
same,Test I rating (% disease control),[1]; [8],0%
same,Test D rating (% disease control),Phytophthora infestans; [6],0%
same,Test J rating (% disease control),[2]; [6],84%
same,Test A rating (% disease control),Plasmopara viticola,0%
COCN(c1c(F)cc(F)cc1F)c1c(-c2ccc(F)cc2Cl)c(C)nn1C [compound 309],Test C disease control rating,Alternaria solani,61%
same,Test F disease control rating,Septoria nodorum; Septoria glume blotch on wheat,60%
same,Test E disease control rating,Rhizoctonia solani,92%
same,Test B disease control rating,Botrytis cinerea,97%
same,Test I disease control rating,[1],0%
same,Test J disease control rating,[2],99%
same,Test G disease control rating,Septoria tritici,100%
Cc1nn(C)c(Nc2cc(F)cc(F)c2F)c1-c1ccc(Cl)cc1 [compound 10],Test C rating (% disease control),Alternaria solani; [4],0%
same,Test F rating (% disease control),Septoria nodorum; [5],0%
same,Test E rating (% disease control),Rhizoctonia solani; [4],0%
same,Test B rating (% disease control),Botrytis cinerea; [4],47%
same,Test I rating (% disease control),[1]; [4],0%
same,Test D rating (% disease control),Phytophthora infestans; [4],0%
same,Test J rating (% disease control),[2]; [4],0%
same,Test G rating (% disease control),Septoria tritici; [4],0%
Cc1nn(C)c(Nc2cc(F)cc(F)c2)c1-c1ccc(F)cc1Cl [compound 9],Test C rating (% disease control),Alternaria solani; [4],0%
same,Test F rating (% disease control),Septoria nodorum; [5],0%
same,Test E rating (% disease control),Rhizoctonia solani; [4],55%
same,Test B rating (% disease control),Botrytis cinerea; [4],99%
same,Test I rating (% disease control),[1]; [4],98%
same,Test D rating (% disease control),Phytophthora infestans; [4],0%
same,Test J rating (% disease control),[2]; [4],97%
same,Test G rating (% disease control),Septoria tritici; [4],100%
Cc1nn(C)c(Nc2ccccc2F)c1-c1ccc(F)cc1Cl [compound 12],Test C rating (% disease control),Alternaria solani; [4],93%
same,Test F rating (% disease control),Septoria nodorum; [5],0%
same,Test E rating (% disease control),Rhizoctonia solani; [4],99%
same,Test B rating (% disease control),Botrytis cinerea; [4],99%
same,Test I rating (% disease control),[1]; [4],99%
same,Test D rating (% disease control),Phytophthora infestans; [4],0%
same,Test J rating (% disease control),[2]; [4],100%
same,Test G rating (% disease control),Septoria tritici; [4],100%
Cc1nn(C)c(Nc2ccc(F)cc2)c1-c1ccc(F)cc1Cl [compound 11],Test C rating (% disease control),Alternaria solani; [4],99%
same,Test F rating (% disease control),Septoria nodorum; [5],0%
same,Test E rating (% disease control),Rhizoctonia solani; [4],99%
same,Test B rating (% disease control),Botrytis cinerea; [4],99%
same,Test I rating (% disease control),[1]; [4],99%
same,Test D rating (% disease control),Phytophthora infestans; [4],0%
same,Test J rating (% disease control),[2]; [4],100%
same,Test G rating (% disease control),Septoria tritici; [4],100%
Cc1nn(C)c(N(c2c(F)cc(F)cc2F)S(C)(=O)=O)c1-c1ccc(F)cc1Cl [compound 304],Test C disease control rating,Alternaria solani,0%
same,Test F disease control rating,Septoria nodorum; Septoria glume blotch on wheat,0%
same,Test E disease control rating,Rhizoctonia solani,0%
same,Test B disease control rating,Botrytis cinerea,0%
same,Test I disease control rating,[1],0%
same,Test J disease control rating,[2],0%
same,Test G disease control rating,Septoria tritici,16%
Cc1nn(CC(=O)O)c(Oc2c(F)cc([N+](=O)[O-])cc2F)c1-c1c(F)cc(F)cc1F [compound 68],Test C rating (% disease control),Alternaria solani; [4],0%
same,Test F rating (% disease control),Septoria nodorum; [5],0%
same,Test B rating (% disease control),Botrytis cinerea; [4],0%
same,Test I rating (% disease control),[1]; [4],0%
same,Test H rating (% disease control),[3]; [9],6%
same,Test J rating (% disease control),[2]; [4],0%
same,Test G rating (% disease control),Septoria tritici; [4],0%
Cc1ccc(Oc2c(-c3c(F)cc(F)cc3F)c(C)nn2C)cc1C#N [compound 250],Test C rating (% disease control),Alternaria solani; [6],0%
same,Test F rating (% disease control),Septoria nodorum; [7],0%
same,Test B rating (% disease control),Botrytis cinerea; [6],98%
same,Test I rating (% disease control),[1]; [8],86%
same,Test H rating (% disease control),[3]; [10],0%
same,Test J rating (% disease control),[2]; [6],100%
same,Test G rating (% disease control),Septoria tritici; [6],77%
COc1ccc(Cl)c(Nc2c(-c3c(F)cccc3F)c(C)nn2C)c1 [compound 215],Test C rating (% disease control),Alternaria solani; [6],0%
same,Test F rating (% disease control),Septoria nodorum; [7],0%
same,Test B rating (% disease control),Botrytis cinerea; [6],89%
same,Test I rating (% disease control),[1]; [8],94%
same,Test H rating (% disease control),[3]; [10],0%
same,Test J rating (% disease control),[2]; [6],99%
same,Test G rating (% disease control),Septoria tritici; [6],98%
COc1ccc(Nc2c(-c3ccc(F)cc3F)c(C)nn2C)c(Cl)c1 [compound 242],Test C rating (% disease control),Alternaria solani; [6],37%
same,Test F rating (% disease control),Septoria nodorum; [7],0%
same,Test B rating (% disease control),Botrytis cinerea; [6],99%
same,Test I rating (% disease control),[1]; [8],91%
same,Test H rating (% disease control),[3]; [10],0%
same,Test J rating (% disease control),[2]; [6],100%
same,Test G rating (% disease control),Septoria tritici; [6],100%
COc1cc(F)c(Nc2c(-c3cccc(Cl)c3)c(C)nn2C)c(F)c1 [compound 25],Test C rating (% disease control),Alternaria solani; [4],0%
same,Test F rating (% disease control),Septoria nodorum; [5],0%
same,Test B rating (% disease control),Botrytis cinerea; [4],100%
same,Test I rating (% disease control),[1]; [4],94%
same,Test H rating (% disease control),[3]; [9],0%
same,Test J rating (% disease control),[2]; [4],79%
same,Test G rating (% disease control),Septoria tritici; [4],100%
Cc1nn(C)c(Nc2ccc(F)cc2Cl)c1-c1ccc(Cl)cc1Cl [compound 354],Test C disease control rating,Alternaria solani,0%
same,Test F disease control rating,Septoria nodorum; Septoria glume blotch on wheat,0%
same,Test B disease control rating,Botrytis cinerea,99%
same,Test I disease control rating,[1],98%
same,Test H disease control rating,"[3]; wheat leaf rust, sprayed after inoculation, 100 = 100% disease control, 0 = no disease control relative to controls",82%
same,Test J disease control rating,[2],100%
same,Test G disease control rating,Septoria tritici,100%
"COc1cc(F)c(Nc2c(-c3ccc(F)cc3Cl)c(C)nn2C)c(F)c1 [Compound 17, 4-(2-Chloro-4-fluorophenyl)-N-(2,6-difluoro-4-methoxyphenyl)-1,3-dimethyl-1H-pyrazol-5-amine]",pest or weed control at 200 µg/mL,"Alternaria solani; Alternaria solani, in Solanum lycopersicum, 168 h, read-out: Test C rating (% disease control)",100%
same,pest or weed control at 200 µg/mL,"Septoria nodorum; Parastagonospora nodorum, in Triticum aestivum, 192 h, read-out: Test F rating (% disease control)",93%
same,pest or weed control at 200 µg/mL,"Botrytis cinerea; Botrytis cinerea, in Solanum lycopersicum, 120 h, read-out: Test B rating (% disease control)",100%
same,pest or weed control at 200 µg/mL,"[1]; 192 h, read-out: Test I rating (% disease control)",100%
same,pest or weed control at 200 µg/mL,"[3]; 144 h, read-out: Test H rating (% disease control)",96%
same,pest or weed control at 200 µg/mL,"[2]; Blumeria graminis, in Triticum aestivum, 192 h, read-out: Test J rating (% disease control)",100%
same,pest or weed control at 200 µg/mL,"Septoria tritici; Zymoseptoria tritici, in Triticum aestivum, 504 h, read-out: Test G rating (% disease control)",97%
